What was measured:
[1] = tested on: Solanum; assay: Post-emergence test/greenhouse; format: in vivo; conditions: 504 h, after three weeks, read-out: degree of damage, Solanum; for pest or weed control at 125 g/ha: 125 g of a.i./ha
Procedure: (§1) To produce a suitable preparation of active compound, 1 part by weight of active compound is mixed with the stated amount of solvent, the stated amount of emulsifier is added and the concentrate is diluted with water to the desired concentration.
(§2) Test plants of a height of 5 -15 cm are sprayed with the preparation of active compound such that the particular amounts of active compound desired are applied per unit area. The concentration of the spray liquor is chosen so that the particular amounts of active compound desired are applied in 1000 l of water/ha.
(§3) After three weeks, the degree of damage to the plants is rated in % damage in comparison to the development of the untreated control.
(§4) 0%=no effect (like untreated control)

[2] = tested on: Amaranthus; assay: Post-emergence test/greenhouse; format: in vivo; conditions: 504 h, after three weeks, read-out: degree of damage, Amaranthus; for pest or weed control at 125 g/ha: 125 g of a.i./ha; for pest or weed control at 60 g/ha: 60 g of a.i./ha
Procedure: as §1, §2, §3, §4

[3] = tested on: Stellaria; assay: Post-emergence test/greenhouse; format: in vivo; conditions: 504 h, after three weeks, read-out: degree of damage, Stellaria; for pest or weed control at 125 g/ha: 125 g of a.i./ha; for pest or weed control at 60 g/ha: 60 g of a.i./ha
Procedure: as §1, §2, §3, §4

[4] = tested on: Abutilon; assay: Post-emergence test/greenhouse; format: in vivo; conditions: 504 h, after three weeks, read-out: degree of damage, Abutilon; for pest or weed control at 125 g/ha: 125 g of a.i./ha; for pest or weed control at 60 g/ha: 60 g of a.i./ha
Procedure: as §1, §2, §3, §4

[5] = tested on: Chenopodium; assay: Post-emergence test/greenhouse; format: in vivo; conditions: 504 h, after three weeks, read-out: degree of damage, Chenopodium; for pest or weed control at 125 g/ha: 125 g of a.i./ha; for pest or weed control at 60 g/ha: 60 g of a.i./ha
Procedure: as §1, §2, §3, §4

[6] = tested on: weeds; assay: Post-emergence test, activity against weeds; format: in vivo
Procedure: as §1, §2, §3, §4

[7] = tested on: weeds; assay: Pre-emergence test, activity against weeds; format: in vivo
Procedure: as §1
(§5) Seeds of the test plants are sown in normal soil. After about 24 hours, the soil is sprayed with the preparation of active compound such that the particular amount of active compound desired is applied per unit area. The concentration of the spray liquor is chosen so that the particular amount of active compound desired is applied in 1000 liters of water per hectare.
as §3, §4

[8] = tested on: Veronica; assay: Pre-emergence test/greenhouse; format: in vivo; conditions: 504 h, after three weeks, read-out: degree of damage, Veronica; for pest or weed control at 125 g/ha: 125 g of a.i./ha
Procedure: as §1, §5, §3, §4

[9] = tested on: Amaranthus; assay: Pre-emergence test/greenhouse; format: in vivo; conditions: 504 h, after three weeks, read-out: degree of damage, Amaranthus; for pest or weed control at 125 g/ha: 125 g of a.i./ha
Procedure: as §1, §5, §3, §4

[10] = tested on: Matricaria; assay: Pre-emergence test/greenhouse; format: in vivo; conditions: 504 h, after three weeks, read-out: degree of damage, Matricaria; for pest or weed control at 125 g/ha: 125 g of a.i./ha
Procedure: as §1, §5, §3, §4

[11] = tested on: Chenopodium; assay: Pre-emergence test/greenhouse; format: in vivo; conditions: after three weeks
Procedure: as §1, §5, §3, §4

[12] = tested on: Setaria; assay: Pre-emergence test/greenhouse; format: in vivo; conditions: after three weeks
Procedure: as §1, §5, §3, §4

[13] = tested on: Echinochloa; assay: Pre-emergence test/greenhouse; format: in vivo; conditions: 504 h, 125 g of a.i./ha, after three weeks, read-out: degree of damage, Echinochloa
Procedure: as §1, §5, §3, §4

[14] = tested on: Sugar beet; assay: Pre-emergence test/greenhouse; format: in vivo; conditions: 125 g of a.i./ha, after three weeks, 0%=no effect, 100%=total destruction
Procedure: as §1, §5, §3, §4

[15] = tested on: Maize; assay: Pre-emergence test/greenhouse; format: in vivo; conditions: 125 g of a.i./ha, after three weeks, 0%=no effect, 100%=total destruction
Procedure: as §1, §5, §3, §4

[16] = tested on: Polygonum; assay: Post-emergence test/greenhouse; format: in vivo; conditions: 60 g of a.i./ha, after three weeks
Procedure: as §1, §2, §3, §4

[17] = tested on: Veronica; assay: Post-emergence test/greenhouse; format: in vivo; conditions: 60 g of a.i./ha, after three weeks
Procedure: as §1, §2, §3, §4

[18] = tested on: Matricaria; assay: Post-emergence test/greenhouse; format: in vivo; conditions: 60 g of a.i./ha, after three weeks
Procedure: as §1, §2, §3, §4

melting point [°C] | Compound | pest or weed control at 125 g/ha [1] [%] | pest or weed control at 125 g/ha [2] [%] | pest or weed control at 125 g/ha [3] [%] | pest or weed control at 125 g/ha [4] [%] | pest or weed control at 125 g/ha [5] [%] | activity against weeds [6] | activity against weeds [7] | pest or weed control at 125 g/ha [8] [%] | pest or weed control at 125 g/ha [9] [%] | pest or weed control at 125 g/ha [10] [%] | degree of damage, Chenopodium ([11]; 125 g of a.i./ha) [%] | pest or weed control at 125 g/ha [13] [%] | pest or weed control at 60 g/ha [3] [%] | pest or weed control at 60 g/ha [4] [%] | further results
– | CCCn1ccs/c1=N\S(=O)(=O)NC(=O)n1nc(OCC2CC2)n(C)c1=O [Example 48] | 80 | 95 | 80 | 80 | 100 | very strong activity | – | – | – | – | – | – | – | – | –
– | CCCn1ccs/c1=N\S(=O)(=O)NC(=O)n1nc(OCC)n(CC)c1=O [Example 49] | 95 | 100 | 95 | 70 | 100 | very strong activity | – | – | – | – | – | – | – | – | –
– | C/C=C/c1nn(C(=O)NS(=O)(=O)/N=c2\sccn2CCC)c(=O)n1C1CC1 [Example 51] | – | – | – | – | – | – | very strong activity | 100 | 100 | 100 | 95 | – | – | – | –
– | CCCc1nn(C(=O)NS(=O)(=O)/N=c2\sccn2CCC)c(=O)n1C1CC1 [Example 55] | 90 | 100 | 100 | 95 | 100 | very strong activity | – | – | – | – | – | – | – | – | –
– | CCCn1ccs/c1=N\S(=O)(=O)NC(=O)n1nc(OCC)n(C2CC2)c1=O [Example 56] | – | – | – | – | – | – | – | – | – | – | – | – | – | – | pest or weed control at 250 g/ha ([8]; 250 g of a.i./ha): 100%; pest or weed control at 250 g/ha ([9]; 250 g of a.i./ha): 100%; pest or weed control at 250 g/ha ([10]; 250 g of a.i./ha): 100%; degree of damage, Setaria ([12]; 250 g of a.i./ha): 100%; degree of damage, Chenopodium ([11]; 250 g of a.i./ha): 100%
189 | COc1nn(C(=O)NS(=O)(=O)/N=c2\sccn2CCCF)c(=O)n1C [Example 124] | – | – | – | – | – | – | very strong activity | 95 | 70 | 100 | – | 90 | – | – | degree of damage, Sugar beet [14]: 0%; degree of damage, Setaria ([12]; 125 g of a.i./ha): 95%; degree of damage, Maize [15]: 0%
170 | CC(C)Oc1nn(C(=O)NS(=O)(=O)/N=c2/sccn2CCCF)c(=O)n1C [Example 125] | – | – | – | – | – | very strong activity | very strong activity | 100 | 70 | 100 | 95 | 90 | 90 | 90 | pest or weed control at 60 g/ha ([1]; 60 g of a.i./ha): 90%; degree of damage, Polygonum [16]: 90%
180 | CCOc1nn(C(=O)NS(=O)(=O)/N=c2\sccn2CCCF)c(=O)n1C1CC1 [Example 130] | – | – | – | – | – | very strong activity | very strong activity | 100 | 100 | 100 | 100 | 100 | 95 | 95 | degree of damage, Veronica [17]: 100%; pest or weed control at 60 g/ha [2]: 100%; degree of damage, Matricaria [18]: 100%; pest or weed control at 60 g/ha [5]: 100%
154 | CC(C)Oc1nn(C(=O)NS(=O)(=O)/N=c2\sccn2CCCF)c(=O)n1C1CC1 [Example 131] | – | – | – | – | – | very strong activity | very strong activity | 95 | 100 | 100 | 95 | 80 | 95 | 90 | degree of damage, Veronica [17]: 90%; pest or weed control at 60 g/ha [2]: 100%; degree of damage, Matricaria [18]: 95%; pest or weed control at 60 g/ha [5]: 95%

— patent US6403535B1, “Substituted thiazol(in) ylideneamino sulfonylamino (thio)carbonyl-triazolinones” (Bayer Aktiengesellschaft, priority 1998, dated 2002)
